Reference: patent US10645928B2, “Pesticidally active polycyclic derivatives with sulfur containing substituents” (Syngenta Participations AG, priority 2014, dated 2020)

Assays:
Type in all cases: in vivo
[1] = system: Euschistus heros (Neotropical Brown Stink Bug); assay: Example B6: Euschistus heros, sprayed soybean leaves, mortality and growth inhibition; details: 120 h, application rate of 200 ppm, N2 nymphs, 5 days after infestation, read-out: effect in at least one of the two categories (mortality or growth inhibition)
Protocol: Soybean leaves on agar in 24-well microtiter plates were sprayed with aqueous test solutions prepared from 10,000 ppm DMSO stock solutions. After drying the leaves were infested with N2 nymphs. The samples were assessed for mortality and growth inhibition in comparison to untreated samples 5 days after infestation.

[2] = system: Myzus persicae (Green Peach Aphid); assay: Example B8: Myzus persicae, sprayed sunflower leaf discs, mortality; details: foliar, 144 h, application rate of 200 ppm, leaf disc spray, aphid population of mixed ages, 6 days after infestation
Protocol: Sunflower leaf discs were placed onto agar in a 24-well microtiter plate and sprayed with aqueous test solutions prepared from 10,000 ppm DMSO stock solutions. After drying, the leaf discs were infested with an aphid population of mixed ages. The samples were assessed for mortality 6 days after infestation.

[3] = system: Plutella xylostella (Diamond Back Moth); assay: Example B10: Plutella xylostella, treated artificial diet, growth inhibition; details: 120 h, application rate of 200 ppm, L2 larvae, 5 days after infestation
Method in brief: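 Artificial diet treated with aqueous dilutions prepared from 10,000 ppm DMSO stocks, dried, then infested with 10-15 L2 larvae per well. Growth inhibition scored against untreated samples 5 days after infestation.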

[4] = system: Spodoptera littoralis (Egyptian Cotton Leaf Worm); assay: Example B16: Spodoptera littoralis, sprayed cotton leaf discs, mortality; details: foliar, 72 h, application rate of 200 ppm, L1 larvae, 3 days after infestation
Protocol: Cotton leaf discs were placed onto agar in 24-well microtiter plates and sprayed with aqueous test solutions prepared from 10,000 ppm DMSO stock solutions. After drying the leaf discs were infested with five L1 larvae. The samples were assessed for mortality 3 days after infestation.

[5] = system: Spodoptera littoralis (Egyptian Cotton Leaf Worm); assay: Example B17: Spodoptera littoralis, sprayed cotton leaf discs, mortality, anti-feeding effect and growth inhibition; details: foliar, 72 h, application rate of 200 ppm, L1 larvae, 3 days after infestation, read-out: control (at least one of mortality, anti-feedant effect, growth inhibition)
Method in brief: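 Cotton leaf discs on agar sprayed with aqueous dilutions of 10,000 ppm DMSO stocks, dried, then infested with five L1 larvae. Mortality, anti-feeding and growth inhibition scored against untreated discs 3 days after infestation. Control recorded when any one category exceeds the untreated sample.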

[6] = system: Aedes aegypti (Yellow Fever Mosquito); assay: Example B23: Aedes aegypti, dry deposits in 12 well tissue culture plates, control; details: application rate of 200 ppm in ethanol, adult females, after 48 h and/or 24 h
Protocol: Test solutions, at an application rate of 200 ppm in ethanol, were applied to 12 well tissue culture plates. Once the deposits were dry, five, two to five day old adult female Aedes aegypti were added to each well, and sustained with a 10% sucrose solution in a cotton wool plug. Assessment of knockdown was made one hour after introduction, and mortality was assessed at 24 and 48 hours after introduction.

CCS(=O)(=O)c1cc(C(C#N)CCBr)cnc1-c1cn2cnc(C(F)(F)F)cc2n1 (stereo not drawn) [Compound P13, 4-bromo-2-[5-ethylsulfonyl-6-[7-(trifluoromethyl)imidazo[1,2-c]pyrimidin-2-yl]-3-pyridyl]butanenitrile]
≥ 80%: percent effect (mortality or growth inhibition) at 200 ppm [1] | mortality at 200 ppm [2] | inhibition at 200 ppm [3] | mortality at 200 ppm [4] | percent control (mortality, anti-feedant effect or growth inhibition) at 200 ppm [5] | pest or weed control at 200 ppm [6]
